Results reported in patent US8802723B2, “Metabolic syndrome-improving agent and medicine, supplement, functional food and food additive containing the same” (ARKRAY, Inc., priority 2005, dated 2014).

How the values were obtained:
adiponectin mRNA = adiponectin mRNA expression in differentiated 3T3-L1 adipocytes (Light Cycler); assay type: cell-based; conditions: 3T3-L1, 7 days after differentiation induction, non-treatment control = 100, average ± standard error
Protocol: Differentiation Induction Medium (0.25 μM DEX, 0.5 mM MIX, 10 μg/mL Insulin/10% FBS/DMEM)
55 mL of FBS (fetal bovine serum (manufactured by GIBCO)) was added to 500 mL of DMEM (manufactured by SIGMA) so as to prepare 10% FBS/DMEM. To this 10% FBS/DMEM, 138.75 μL of 1 mM DEX (dexamethasone)/DMSO (manufactured by Nacalai Tesque, Inc.) and 555 μL of 10 mg/mL insulin/PBS (manufactured by SIGMA) were added. Incidentally, the insulin/PBS was obtained by adding 1N HCl to PBS in advance so as to make the solution acidic enough to allow insulin dissolution and then dissolving insulin. […]
Next, culture preadipocytes 3T-L1 were thawed, inoculated in a 100 mm dish and cultured until 3T3-L 1 cells reached about 80% confluence. […] 7 days after the initiation of the differentiation induction, mRNA was extracted using Sepasol(R)—RNA I super (manufactured by Nacalai Tesque, Inc.), and the mRNA expression amounts of 36B4, aP2 and adiponectin, which were indicators of an early period of adipocyte differentiation, were measured using Light Cycler™. Also, the medium 7 days after the differentiation induction was taken in an amount of 1 mL from each well, and the amount of adiponectin in the medium supernatant was measured using a mouse/rat adiponectin ELISA kit (trade name) (manufactured by Otsuka Pharmaceutical Co., Ltd.). […]

HepG2 cells = test: counting of the number of living cells (CellTiter 96 Aqueous One Solution); assay type: cell-based, human; conditions: HepG2, 30 hours, control (DMSO) = 100
Protocol: HepG2 was cultured to 80% to 90% confluence in a 100 mm/Collagen-Coated Dish (trade name, manufactured by Iwaki Glass Works, Co.). The medium was removed from the above-noted dish with a pipette and then HepG2 was washed with 2 mL of 1×PBS. Then, 2 mL of trypsin-EDTA was added, the above-noted dish was rotated slowly so that the trypsin-EDTA spread over the entire cells, this trypsin-EDTA was removed with a pipette, and the dish was allowed to stand still for 15 minutes in a CO2 incubator (37° C., 5%). To this dish, 12 mL of a growth medium was added, followed by mixing by pipetting, and 1 mL of this mixture solution was dispensed in each well of Collagen-Coated Microplates 12Well/Flat Bottom (trade name, manufactured by Iwaki Glass Works, Co.). After the cells were checked using a microscope, the wells were cultured in a CO2 incubator (37° C., 5%) for one to two days. After checking that 80% to 90% confluence was achieved using the microscope, a medium replacement was carried out by removing the medium and adding 800 μL of a medium containing aurapten. […] Using this collected medium, the number of living cells were counted, and the Western blotting and the ELISA measurement were carried out similarly to the above. From the result of the ELISA, the ratio of the VLDL secretion amount between the measurement group and the non-treated control group (measurement group/control group) was calculated for each sample.
The measurement was made using CellTiter 96 Aqueous One Solution Cell Proliferation Assay (trade name, manufactured by Promega Corporation). […] 100 μL of this mixture solution was dispensed to each of three wells of ELISA PLATE 96 well (trade name, manufactured by Iwaki Glass Works, Co.), and the absorbance at 490 nm was measured. The measurement was made using wallac ARVOsx (trade name, PerkinElmer Life Sciences, PerkinElmer, Inc.), and the mode of measurement was Absorbance (490 nm, 1.0 S). The ratio of the number of living cells between the measurement group and the non-treated control group (measurement group/control group) was calculated for each sample.

Structure (SMILES): CC(C)=CCC/C(C)=C/COc1ccc2ccc(=O)oc2c1 [Aurapten, aurapten]
- Adiponectin mRNA expression amount (ratio to 36B4) (adiponectin mRNA; aurapten 1 μM): 144.5 ± 26.7
- Adiponectin mRNA expression amount (ratio to 36B4) (adiponectin mRNA; aurapten 5 μM): 161.4 ± 40.2
- Number of living cells (%) (HepG2 cells; aurapten 10 μM): 100.3%
- Number of living cells (%) (HepG2 cells; aurapten 20 μM): 99.9%
- Number of living cells (%) (HepG2 cells; aurapten 50 μM): 98.7%
